The values that follow are results of earlier work, collected in patent US12458645B2, “Pediatric powder for oral suspension containing antiviral agent and method for the preparation thereof” (PHARMATHEN S.A., priority 2014, dated 2025).

Structures can show the parent of a compound that is named as a salt.

For series [1] the following is noted: in words.
The conditions of series [2]: in words. This is another data set of the same source.

As for `Nc1nc2c(ncn2COCCO)c(=O)[nH]1` [acyclovir, Acyclovir], in series [1], the oral bioavailability entry is on record as “poor oral bioavailability”.
For the compound `CC(C)[C@H](N)C(=O)OCCOCn1cnc2c(=O)[nH]c(N)nc21` [Valaciclovir hydrochloride, L-valine, 2-[(2-amino-1,6-dihydro-6-oxo-9H-purin-9-yl)methoxy] ethyl ester, mono hydrochloride], in series [2], the solubility in dichloromethane result is on record as “insoluble in dichloromethane” and the solubility in water result is on record as “soluble in water”.
